Patent publication US10028960B2, “Pyrimidine compounds as JAK kinase inhibitors” (THERAVANCE BIOPHARMA R&D IP, LLC, priority 2016, dated 2018)
Read-outs that look alike come from different tables or passages of the source.

Experiments:
JAK1 = JAK1 (Homo sapiens (Human), UniProt P23458); assay: LanthaScreen JAK biochemical assay, JAK1
Procedure: (§1) A panel of four LanthaScreen JAK biochemical assays (JAK1, 2, 3 and Tyk2) were carried in a common kinase reaction buffer (50 mM HEPES, pH 7.5, 0.01% Brij-35, 10 mM MgCl2, and 1 mM EGTA). Recombinant GST-tagged JAK enzymes and a GFP-tagged STAT1 peptide substrate were obtained from Life Technologies.

in vivo = conditions: Sprague Dawley, rat, po
Procedure: (§2) The test compound was formulated in 0.5% methyl-cellulose in water and dosed via oral gavage at 3.2 mg/kg and 100 mg/kg to Sprague Dawley rats. At various time points (typically 0.5, 1, 3, 6, 24 hr) post dosing, blood samples were removed via cardiac puncture and intact colons were excised from the rats. Blood samples were centrifuged at 1500×g for 15 min to collect plasma. Colons were washed with ice cold phosphate buffered saline (PBS), weighed, and homogenized at a dilution of 1:10 in PBS. Plasma and colon levels of test compound were determined by LC-MS analysis against analytical standards constructed into a standard curve in the test matrix. A colon to plasma ratio was determined as the ratio of the colon AUC to the plasma AUC in μg hr/g.

[1] = Colon pharmacokinetics in rats; conditions: Sprague Dawley, rat, colon and plasma, po, 5 mg/kg
Procedure: as §2

[2] = system: IL-13 induced STAT6 phosphorylation in HT-29 human colorectal adenocarcinoma cells; assay: Cellular JAK potency assay: inhibition of IL-13 induced STAT6 phosphorylation; assay type: cell-based; conditions: Homo sapiens
[3] = system: IFNγ stimulated STAT1 phosphorylation in CD14+ monocytes; assay: Cellular JAK potency assay: inhibition of IFNγ-induced pSTAT1; assay type: cell-based; conditions: Homo sapiens, Monocyte
Procedure: The potency of test compounds for inhibition of interferon gamma (IFNγ) stimulated STAT1 phosphorylation was measured in CD14-positive (CD14+) monocytes derived from human whole blood (Stanford Blood Center) using flow cytometry. Because IFNγ signals through JAK, this assay provides a measure of JAK cellular potency.
Monocytes were identified using a fluorescein isothiocyanate (FITC) conjugated anti-CD14 antibody (Clone RM052, Beckman Coulter), and an Alexa Fluor 647 conjugated anti-pSTAT1 antibody (pY701, Clone 4a, BD Biosciences) was used to detect STAT1 phosphorylation.
Human peripheral blood mononuclear cells (PBMC) were isolated from human whole blood of healthy donors using a ficoll gradient. […] Cells were washed twice with FACS buffer, and then resuspended in 1:10 anti-pSTAT1 Alexa Fluor 647:FACS buffer (100 μL) for 30 min at RT in the dark, washed twice in FACS buffer, and analyzed using a LSRII flow cytometer (BD Biosciences).
To determine the inhibitory potency of test compounds, the median fluorescent intensity (MFI) of pSTAT1 was measured in CD14+ monocytes. IC50 values were determined from analysis of the inhibition curves of MFI vs compound concentration. Data are expressed as pIC50 (negative decadic logarithm IC50) values (mean±standard deviation).

Tyk2 = Tyk2 (Homo sapiens (Human), UniProt P29597); assay: LanthaScreen JAK biochemical assay, Tyk2
Procedure: as §1

Chain of JAK1 (P23458 whole entry): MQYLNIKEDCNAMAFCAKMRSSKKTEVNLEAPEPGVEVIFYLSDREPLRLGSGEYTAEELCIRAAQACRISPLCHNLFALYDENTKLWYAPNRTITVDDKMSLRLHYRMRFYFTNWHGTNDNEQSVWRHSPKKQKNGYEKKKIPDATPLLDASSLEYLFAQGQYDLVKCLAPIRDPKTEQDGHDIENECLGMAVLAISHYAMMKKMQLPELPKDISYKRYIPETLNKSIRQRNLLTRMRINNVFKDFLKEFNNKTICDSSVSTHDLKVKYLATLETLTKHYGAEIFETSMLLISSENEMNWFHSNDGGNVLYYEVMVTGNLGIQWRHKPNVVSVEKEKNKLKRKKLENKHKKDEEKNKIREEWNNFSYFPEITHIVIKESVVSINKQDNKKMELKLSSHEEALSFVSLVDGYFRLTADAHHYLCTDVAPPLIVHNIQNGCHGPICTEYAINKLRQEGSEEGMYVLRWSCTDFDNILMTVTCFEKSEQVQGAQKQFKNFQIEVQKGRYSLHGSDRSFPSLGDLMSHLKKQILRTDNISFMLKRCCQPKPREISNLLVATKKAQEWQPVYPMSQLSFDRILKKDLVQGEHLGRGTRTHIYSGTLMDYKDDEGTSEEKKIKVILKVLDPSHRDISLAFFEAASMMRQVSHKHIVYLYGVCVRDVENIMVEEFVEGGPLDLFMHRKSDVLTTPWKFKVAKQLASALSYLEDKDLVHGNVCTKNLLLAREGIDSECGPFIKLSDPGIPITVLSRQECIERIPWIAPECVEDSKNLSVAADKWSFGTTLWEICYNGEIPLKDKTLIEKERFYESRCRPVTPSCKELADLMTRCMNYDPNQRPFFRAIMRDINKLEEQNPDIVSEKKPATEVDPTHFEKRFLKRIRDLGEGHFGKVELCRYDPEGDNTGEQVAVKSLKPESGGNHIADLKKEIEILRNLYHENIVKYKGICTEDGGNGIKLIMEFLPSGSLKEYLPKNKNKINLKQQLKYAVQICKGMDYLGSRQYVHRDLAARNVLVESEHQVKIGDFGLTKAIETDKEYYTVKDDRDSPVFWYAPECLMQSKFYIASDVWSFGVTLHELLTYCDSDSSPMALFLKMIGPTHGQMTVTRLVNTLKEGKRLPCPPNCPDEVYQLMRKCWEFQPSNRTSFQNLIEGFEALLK
Chain of Tyk2 (P29597 whole entry): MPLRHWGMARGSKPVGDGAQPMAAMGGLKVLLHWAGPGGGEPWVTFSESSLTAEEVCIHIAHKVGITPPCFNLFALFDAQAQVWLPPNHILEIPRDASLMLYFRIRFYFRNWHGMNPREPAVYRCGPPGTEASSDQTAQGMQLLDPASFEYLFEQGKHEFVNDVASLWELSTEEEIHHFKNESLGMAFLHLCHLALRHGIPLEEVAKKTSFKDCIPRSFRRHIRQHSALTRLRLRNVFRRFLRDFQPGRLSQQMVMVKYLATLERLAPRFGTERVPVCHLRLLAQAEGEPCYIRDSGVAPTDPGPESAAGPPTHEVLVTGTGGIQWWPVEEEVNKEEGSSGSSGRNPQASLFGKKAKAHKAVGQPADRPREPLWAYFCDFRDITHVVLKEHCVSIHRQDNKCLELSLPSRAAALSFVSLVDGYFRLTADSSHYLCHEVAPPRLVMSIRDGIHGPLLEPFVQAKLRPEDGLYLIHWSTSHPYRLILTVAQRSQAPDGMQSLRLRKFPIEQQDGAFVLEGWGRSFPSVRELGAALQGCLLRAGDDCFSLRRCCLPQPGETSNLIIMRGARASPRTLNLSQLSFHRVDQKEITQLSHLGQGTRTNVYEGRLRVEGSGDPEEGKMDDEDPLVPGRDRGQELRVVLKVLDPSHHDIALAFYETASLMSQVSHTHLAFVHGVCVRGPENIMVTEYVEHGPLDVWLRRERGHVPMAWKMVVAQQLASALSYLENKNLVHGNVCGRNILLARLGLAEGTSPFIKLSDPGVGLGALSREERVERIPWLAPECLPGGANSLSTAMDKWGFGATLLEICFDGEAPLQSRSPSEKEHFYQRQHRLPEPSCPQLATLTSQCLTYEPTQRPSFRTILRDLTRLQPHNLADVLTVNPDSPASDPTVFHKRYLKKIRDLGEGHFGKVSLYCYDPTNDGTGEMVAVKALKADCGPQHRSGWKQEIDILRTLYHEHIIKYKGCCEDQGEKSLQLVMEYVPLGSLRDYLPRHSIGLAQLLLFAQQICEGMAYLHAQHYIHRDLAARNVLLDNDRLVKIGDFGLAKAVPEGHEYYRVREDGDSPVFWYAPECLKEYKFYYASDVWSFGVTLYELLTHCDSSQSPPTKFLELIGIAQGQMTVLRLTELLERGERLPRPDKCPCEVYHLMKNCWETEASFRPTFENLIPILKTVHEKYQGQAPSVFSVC

## COc1cc(Nc2cc(CO)[nH]n2)nc(N(C)[C@@H]2C[C@H]3CCC[C@@H](C2)N3S(=O)(=O)N2CC(C#N)C2)n1 [Example 2, 1-(((1R,3s,5S)-3-((4-((5-(Hydroxymethyl)-1H-pyrazol-3-yl)amino)-6-methoxypyrimidin-2-yl)(methyl)amino)-9-azabicyclo[3.3.1]nonan-9-yl)sulfonyl)azetidine-3-carbonitrile]
JAK1
  JAK 1 (pKi): A (A represents a pKi value≥10 (Ki≤0.1 nM))
In vivo; 5 mg/kg
  Kp: > 250
In vivo; 100 mg/kg
  Kp: > 1200
[1]
  Kp: > 250
[2]; HT-29, cellular assay, Assay 2, read-out: IC50 for inhibition of IL-13
  IC50: ≤ 0.05 µM
[2]; IL-13 induced STAT6 phosphorylation, HT-29 cells, read-out: HT-29 (pIC50) (converted)
  IC50: 0.0316 to 0.2 µM
[3]; IFNγ-induced pSTAT1, CD14+ monocytes, read-out: pIC50 value (converted)
  IC50: ~0.0251 µM
[3]; cellular assay, Assay 5, read-out: IC50 for inhibition of IFNγ
  IC50: ≤ 0.05 µM
Tyk2
  Ki: 0.0001 to 0.001 µM
